Here are results for 17 compounds from US10590086B2, “Pharmaceutical compound” (IOmet Pharma Ltd., priority 2014, dated 2020).

The structures appear in SMILES notation.

Experiment [1] has as its target T1, TDO (Homo sapiens, UniProt P48775). The experiment can be described thus: A172 kynurenine cell-based assay. The arrangement: This assay utilised cancer cells which expressed either TDO or IDO; endogenous in cells; host or cells: A172 (human glioblastoma). The note with it: A172 human glioblastoma cells, 48 hours, 500 μM L-tryptophan; read-out: A172 Kynurenine cell based assay pIC50 (converted). The essentials:
(§1)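 A172 glioblastoma cells (TDO) or SKOV3 ovarian cells (IDO, induced with 500 ng/ml IFN-γ) were grown in phenol red-free RPMI with 10% FCS, 2 mM L-glutamine and 500 μM L-tryptophan, ± test compound, 48 hours at 37° C. Supernatant kynurenine was measured by absorbance at 490 nm after Erhlich's reagent.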

Experiment [2] has as its target T2, IDO (Homo sapiens, UniProt P14902). The experiment can be described thus: hIDO biochemical coupled assay. The note with it: 45 μM L-tryptophan, 17 minutes, room temperature; read-out: hIDO biochemical assay pIC50 (converted).
Source text: Two different assays were employed: 1. a cell-based assay for detecting the effect of test compounds on kynurenine production in two different cancer cell types. This assay utilised cancer cells which expressed either TDO or IDO and as such was used as a means of testing compound activity at these two enzymes in a cell-based context. 2. a TDO and IDO biochemical coupled assay which utilised recombinantly produced and purified TDO and IDO enzymes in combination with the enzyme formamidase. This coupled enzyme system allowed conversion of N-formylkynurenine produced by TDO or IDO activity to kynurenine which was then quantified by fluorescence following addition of Erhlich's Reagent The protocols for these are set out below.
In experiment [3] the target is T2, IDO. Briefly: SKOV3 kynurenine cell-based assay (IDO induced by IFN-γ). Also noted: IDO expression was induced in the SKOV3 cells by the addition of 500 ng/ml IFN-γ; endogenous in cells; host or cells: SKOV3 (human ovarian adenocarcinoma), induced with IFN-γ. The following applies: SKOV3 human ovarian adenocarcinoma cells, 500 ng/ml IFN-γ, 48 hours, 500 μM L-tryptophan; read-out: SKOV3 Kynurenine cell based assay pIC50 (converted). The procedure, abridged: as §1

Experiment [4] concerns the target T1, TDO. Briefly: hTDO biochemical coupled assay. The note with it: 330 μM L-tryptophan, 17 minutes, room temperature; read-out: hTDO biochemical assay pIC50 (converted).

T2 sequence (P14902 whole entry): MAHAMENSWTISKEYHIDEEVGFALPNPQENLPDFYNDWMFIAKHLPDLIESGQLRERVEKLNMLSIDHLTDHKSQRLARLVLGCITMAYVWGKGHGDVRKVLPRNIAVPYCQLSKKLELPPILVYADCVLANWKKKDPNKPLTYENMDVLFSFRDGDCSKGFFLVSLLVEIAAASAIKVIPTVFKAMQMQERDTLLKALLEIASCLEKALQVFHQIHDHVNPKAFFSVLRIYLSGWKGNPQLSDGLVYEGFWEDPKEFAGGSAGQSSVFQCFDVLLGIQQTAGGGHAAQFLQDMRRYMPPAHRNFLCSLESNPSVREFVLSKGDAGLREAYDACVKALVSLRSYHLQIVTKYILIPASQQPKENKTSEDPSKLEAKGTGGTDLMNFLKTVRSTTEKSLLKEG
T1 sequence (P48775 whole entry): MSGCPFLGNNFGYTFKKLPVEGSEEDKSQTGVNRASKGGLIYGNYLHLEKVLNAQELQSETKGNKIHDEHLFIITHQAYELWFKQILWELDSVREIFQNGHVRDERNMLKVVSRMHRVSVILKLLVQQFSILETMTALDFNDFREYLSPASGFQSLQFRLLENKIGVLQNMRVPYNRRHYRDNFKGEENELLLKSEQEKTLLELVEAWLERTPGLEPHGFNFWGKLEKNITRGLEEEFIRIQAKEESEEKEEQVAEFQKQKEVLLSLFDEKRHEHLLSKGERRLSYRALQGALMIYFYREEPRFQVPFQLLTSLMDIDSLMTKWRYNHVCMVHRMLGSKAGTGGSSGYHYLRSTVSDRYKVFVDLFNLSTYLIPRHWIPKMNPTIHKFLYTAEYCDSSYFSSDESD

For `O=C1N[C@H]2CC[C@@H]1CN(c1cc(C(F)(F)F)cc3[nH]ncc13)C2` [Compound 439], the IC50 at TDO [1] is less than 3.16 µM; on IDO [2] it was 3.24 to 31.6 µM; on IDO [3], more than 100 µM; on TDO [4] it was less than 3.16 µM.
As for `Clc1cc(N2CCc3cnccc3C2)c2cn[nH]c2c1` [Compound 343], the IC50 on TDO [1] was less than 3.16 µM; at IDO [2] it was more than 100 µM; at IDO [3], 32.4 to 100 µM; at TDO [4] it was less than 3.16 µM.
On to `CC1(C)CN(c2cc(C#N)cc3[nH]ncc23)CCN1S(C)(=O)=O` [Compound 334], for which the IC50 on TDO [1] is less than 3.16 µM; at IDO [2] it was less than 3.16 µM; at IDO [3], 3.24 to 31.6 µM; at TDO [4], less than 3.16 µM.
In the case of `Clc1cc(C2CCCCC2)c2cn[nH]c2c1` [Compound 353], the IC50 at TDO [1] was less than 3.16 µM; on IDO [2] it was more than 100 µM; at IDO [3], 32.4 to 100 µM; on TDO [4], less than 3.16 µM.
For the compound `Cn1ccnc1N1CCN(c2cc(Cl)cc3[nH]ncc23)CC1` [Compound 436], the IC50 at TDO [1] is less than 3.16 µM; on IDO [2] it was more than 100 µM; at IDO [3], more than 100 µM; on TDO [4], less than 3.16 µM.
In the case of `Clc1cc(N2CCOCC2)c2cn[nH]c2c1` [Compound 327], the IC50 on TDO [1] was 3.24 to 31.6 µM; on IDO [2] it was more than 100 µM; at IDO [3], 3.24 to 31.6 µM; at TDO [4], 3.24 to 31.6 µM.
Take `CS(=O)(=O)N1CCC(c2cc(C3CCCC3)cc3[nH]ncc23)CC1` [Compound 218]: the IC50 was more than 100 µM at TDO [1], 32.4 to 100 µM on IDO [2], 32.4 to 100 µM on IDO [3] and more than 100 µM at TDO [4].
On to `CNC(=O)c1ccc(-c2cc(Cl)cc3[nH]ncc23)cc1` [Compound 257], for which the IC50 on TDO [1] was less than 3.16 µM; on IDO [2] it was more than 100 µM; at IDO [3], 3.24 to 31.6 µM; on TDO [4], less than 3.16 µM.
As to `Clc1cc(N2CC=CCC2)c2cn[nH]c2c1` [Compound 345], the IC50 on TDO [1] is less than 3.16 µM; at IDO [2], 3.24 to 31.6 µM; at IDO [3], 3.24 to 31.6 µM; on TDO [4], less than 3.16 µM.
On to `CC(=O)NCC1CCCN(c2cc(Cl)cc3[nH]ncc23)C1` (centres unmarked) [Compound 283], for which the IC50 on TDO [1] was 3.24 to 31.6 µM; on IDO [2] it was more than 100 µM; at IDO [3], 3.24 to 31.6 µM; at TDO [4], less than 3.16 µM.
As to `CS(=O)(=O)N1CCC(c2cc(C3CCOCC3)cc3[nH]ncc23)CC1` [Compound 325], the IC50 at TDO [1] is 32.4 to 100 µM; on IDO [2] it was more than 100 µM; at IDO [3], 32.4 to 100 µM; on TDO [4], more than 100 µM.
With `CS(=O)(=O)N1CCC(C(O)c2cc(Cl)cc3[nH]ncc23)CC1` (centres unmarked) [Compound 333], the IC50 is 3.24 to 31.6 µM on TDO [1], more than 100 µM on IDO [2], 32.4 to 100 µM on IDO [3] and less than 3.16 µM on TDO [4].
The matching figures for `O=C1NC(=O)C2(CCN(c3cc(Cl)cc4[nH]ncc34)CC2)N1` [Compound 137]: less than 3.16 µM, less than 3.16 µM, less than 3.16 µM and less than 3.16 µM.
For the compound `Clc1cc(N2CCC(n3cccn3)CC2)c2cn[nH]c2c1` [Compound 339], the IC50 at TDO [1] was less than 3.16 µM; on IDO [2], less than 3.16 µM; at IDO [3] it was 3.24 to 31.6 µM; on TDO [4], less than 3.16 µM.
For `CC(=O)NC1CCN(c2cc(Cl)cc3[nH]ncc23)C1` (centres unmarked) [Compound 198], the IC50 was less than 3.16 µM on TDO [1], 3.24 to 31.6 µM at IDO [2], 3.24 to 31.6 µM on IDO [3] and less than 3.16 µM on TDO [4].
With `CC(C)N1C(=O)NC2(CCN(c3cc(Cl)cc4[nH]ncc34)CC2)C1=O` [Compound 316], the IC50 at TDO [1] is less than 3.16 µM; at IDO [2], 3.24 to 31.6 µM; at IDO [3], 3.24 to 31.6 µM; at TDO [4] it was less than 3.16 µM.
As to `CNc1cc(-c2cc(Cl)cc3[nH]ncc23)ccn1` [Compound 279], the IC50 was less than 3.16 µM on TDO [1], more than 100 µM at IDO [2], less than 3.16 µM on IDO [3] and less than 3.16 µM at TDO [4].
